For one data set, the target named is PI3K (p120γ) (h) (Homo sapiens (Human), UniProt P48736). In words: PI3K (p120γ) (h) non-radioactive HTRF kinase assay. In kind it is biochemical. The note with it: performed at Millipore UK Ltd. As to the method:
(§1) The above assay procedure can be used to determine the IC50 for inhibition and/or the inhibition constant, Ki.
PI3K (p120γ) (h) [Non-Radioactive Assay]
(§2) PI3K (p120γ) (h) is incubated in assay buffer containing 10 μM phosphatidylinositol-4, 5-bisphosphate and MgATP (concentration as required). The reaction is initiated by the addition of the MgATP mix. After incubation for 30 minutes at room temperature, the reaction is stopped by the addition of stop solution containing EDTA and biotinylated phosphatidylinositol-3,4,5-trisphosphate. Finally, detection buffer is added, which contains europium-labelled anti-GST monoclonal antibody, GST-tagged GRP1 PH domain and streptavidin-allophycocyanin. The plate is then read in timeresolved fluorescence mode and the homogenous time-resolved fluorescence (HTRF) signal is determined according to the formula HTRF=10000×(Em665 nm/Em620 nm).
(§3) The kinase assays described herein were performed at Millipore UK Ltd, Dundee Technology Park, Dundee DD2 1SW, UK.

A further data set has as its target PI3K (p110α/p85α) (h) (Homo sapiens (Human), UniProt P42336). Description: PI3K (p110α/p85α) (h) non-radioactive HTRF kinase assay. In kind it is biochemical. The note with it: performed at Millipore UK Ltd. As to the method:
as §1
PI3K (p110α/p85α) (h) [Non-Radioactive Assay]
as §2, with “(p110α/p85α)” for “(p120γ)”, “phosphatidylinositol 4,5-bisphosphate” for “phosphatidylinositol-4, 5-bisphosphate”, “ATP solution.” for “MgATP mix.”, “streptavidin allophycocyanin.” for “streptavidin-allophycocyanin.”
as §3

A further data set deals with PI3K (p110β/p85α) (h) (Homo sapiens (Human), UniProt P42338). In words: PI3K (p110β/p85α) (h) non-radioactive HTRF kinase assay. In kind it is biochemical. The note with it: performed at Millipore UK Ltd. The method, then:
as §1
PI3K (p110β/p85α) (h) [Non-Radioactive Assay]
as §2, with “([…])” for “(p120γ)”
as §3

Data set [1] can be described thus: Pharmacokinetic profiles in rats. In kind it is in vivo, rat. The note with it: for Cl/F / AUC(0-t) / half-life / Vd: iv dosing 1 mg/kg; for F: oral vs iv (iv 1 mg/kg; p.o. generally 5 or 10 mg/kg); for AUC(0-t) / half-life / Vd: rat, plasma; for Vd: read-out: Vss. Summed up: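 In rats, dogs and monkeys, IV dose was generally 1 or 2 mg/kg. Oral dose was generally 5 or 10 mg/kg in rats and 10 mg/kg in dogs and monkeys, given as solution, suspension or capsule. Plasma sampled over up to 24 h and analysed by LC/MS/MS.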

In the next data set the target is PI3K (p110δ/p85α) (h) (Homo sapiens (Human), UniProt O00329). In words: PI3K (p110δ/p85α) (h) non-radioactive HTRF kinase assay. The note with it: performed at Millipore UK Ltd. In kind it is biochemical. An outline of the steps: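 Human p110δ/p85α incubated with 10 μM phosphatidylinositol-4,5-bisphosphate, reaction started with MgATP (concentration as required), 30 min at room temperature. Stopped with EDTA plus biotinylated PIP3; detection by HTRF with Eu-anti-GST antibody, GST-GRP1 PH domain and streptavidin-APC, signal = 10000×(Em665/Em620). Yields IC50 and/or Ki.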

This note sets out measurements from US9512114B2, “Substituted aminopyrimidine compounds and methods of use” (Calitor Sciences, LLC, priority 2013, dated 2016).

pIC50: −log10 of the molar value.

Chain of PI3K (p120γ) (h) (P48736 whole entry): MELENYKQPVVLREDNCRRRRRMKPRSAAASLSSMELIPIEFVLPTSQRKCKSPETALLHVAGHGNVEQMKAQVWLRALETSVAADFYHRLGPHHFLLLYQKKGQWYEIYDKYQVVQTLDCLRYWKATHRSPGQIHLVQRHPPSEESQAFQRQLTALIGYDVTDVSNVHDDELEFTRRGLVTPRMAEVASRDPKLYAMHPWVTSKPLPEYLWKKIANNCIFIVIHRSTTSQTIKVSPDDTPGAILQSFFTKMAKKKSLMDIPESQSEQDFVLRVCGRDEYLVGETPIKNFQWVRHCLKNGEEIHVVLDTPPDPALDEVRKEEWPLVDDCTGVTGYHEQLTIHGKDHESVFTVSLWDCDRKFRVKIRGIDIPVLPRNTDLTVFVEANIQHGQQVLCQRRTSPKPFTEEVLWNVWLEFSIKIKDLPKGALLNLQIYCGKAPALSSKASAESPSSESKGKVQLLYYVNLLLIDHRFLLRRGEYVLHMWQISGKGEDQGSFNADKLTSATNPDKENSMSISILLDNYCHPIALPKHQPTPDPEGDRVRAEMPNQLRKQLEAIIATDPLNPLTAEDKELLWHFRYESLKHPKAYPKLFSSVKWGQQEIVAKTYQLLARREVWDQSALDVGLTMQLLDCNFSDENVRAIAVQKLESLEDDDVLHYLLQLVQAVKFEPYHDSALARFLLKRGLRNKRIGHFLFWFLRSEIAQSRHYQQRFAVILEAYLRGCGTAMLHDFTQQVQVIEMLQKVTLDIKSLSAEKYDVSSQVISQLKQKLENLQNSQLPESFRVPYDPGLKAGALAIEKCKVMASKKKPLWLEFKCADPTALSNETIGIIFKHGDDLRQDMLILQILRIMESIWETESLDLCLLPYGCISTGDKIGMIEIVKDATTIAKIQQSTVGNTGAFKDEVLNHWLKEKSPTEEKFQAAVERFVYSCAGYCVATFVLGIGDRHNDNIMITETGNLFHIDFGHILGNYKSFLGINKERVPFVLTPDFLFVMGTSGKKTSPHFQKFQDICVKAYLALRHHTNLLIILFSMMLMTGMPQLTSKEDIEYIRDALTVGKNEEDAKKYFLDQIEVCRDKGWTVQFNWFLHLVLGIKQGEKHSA
Chain of PI3K (p110β/p85α) (h) (P42338 whole entry): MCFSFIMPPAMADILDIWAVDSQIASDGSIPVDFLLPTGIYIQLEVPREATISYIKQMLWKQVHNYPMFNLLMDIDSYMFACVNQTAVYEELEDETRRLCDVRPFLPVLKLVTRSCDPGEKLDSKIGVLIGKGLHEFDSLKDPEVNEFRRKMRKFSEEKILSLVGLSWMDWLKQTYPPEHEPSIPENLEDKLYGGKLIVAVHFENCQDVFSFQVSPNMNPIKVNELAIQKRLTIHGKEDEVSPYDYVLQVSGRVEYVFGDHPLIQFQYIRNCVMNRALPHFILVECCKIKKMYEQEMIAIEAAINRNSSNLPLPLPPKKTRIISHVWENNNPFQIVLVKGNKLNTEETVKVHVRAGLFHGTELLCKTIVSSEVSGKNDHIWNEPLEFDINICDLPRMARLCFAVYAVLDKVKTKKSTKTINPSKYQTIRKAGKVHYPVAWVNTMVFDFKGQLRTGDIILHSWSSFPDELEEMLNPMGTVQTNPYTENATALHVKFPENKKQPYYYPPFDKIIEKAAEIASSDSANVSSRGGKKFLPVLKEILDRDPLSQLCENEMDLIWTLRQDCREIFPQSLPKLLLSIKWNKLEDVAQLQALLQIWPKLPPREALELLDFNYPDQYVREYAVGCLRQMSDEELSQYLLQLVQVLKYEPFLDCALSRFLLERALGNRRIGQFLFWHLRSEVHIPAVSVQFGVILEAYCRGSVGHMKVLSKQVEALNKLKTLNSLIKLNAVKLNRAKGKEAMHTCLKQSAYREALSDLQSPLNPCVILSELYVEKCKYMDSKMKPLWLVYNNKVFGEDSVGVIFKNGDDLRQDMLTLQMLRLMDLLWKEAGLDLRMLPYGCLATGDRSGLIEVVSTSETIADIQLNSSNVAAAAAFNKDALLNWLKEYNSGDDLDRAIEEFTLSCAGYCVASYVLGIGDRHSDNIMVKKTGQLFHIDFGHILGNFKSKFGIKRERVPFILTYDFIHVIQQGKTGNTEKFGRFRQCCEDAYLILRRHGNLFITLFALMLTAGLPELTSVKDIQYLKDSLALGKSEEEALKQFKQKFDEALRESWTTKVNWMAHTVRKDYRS
Chain of PI3K (p110β/p85α) (h) (P27986 whole entry partner): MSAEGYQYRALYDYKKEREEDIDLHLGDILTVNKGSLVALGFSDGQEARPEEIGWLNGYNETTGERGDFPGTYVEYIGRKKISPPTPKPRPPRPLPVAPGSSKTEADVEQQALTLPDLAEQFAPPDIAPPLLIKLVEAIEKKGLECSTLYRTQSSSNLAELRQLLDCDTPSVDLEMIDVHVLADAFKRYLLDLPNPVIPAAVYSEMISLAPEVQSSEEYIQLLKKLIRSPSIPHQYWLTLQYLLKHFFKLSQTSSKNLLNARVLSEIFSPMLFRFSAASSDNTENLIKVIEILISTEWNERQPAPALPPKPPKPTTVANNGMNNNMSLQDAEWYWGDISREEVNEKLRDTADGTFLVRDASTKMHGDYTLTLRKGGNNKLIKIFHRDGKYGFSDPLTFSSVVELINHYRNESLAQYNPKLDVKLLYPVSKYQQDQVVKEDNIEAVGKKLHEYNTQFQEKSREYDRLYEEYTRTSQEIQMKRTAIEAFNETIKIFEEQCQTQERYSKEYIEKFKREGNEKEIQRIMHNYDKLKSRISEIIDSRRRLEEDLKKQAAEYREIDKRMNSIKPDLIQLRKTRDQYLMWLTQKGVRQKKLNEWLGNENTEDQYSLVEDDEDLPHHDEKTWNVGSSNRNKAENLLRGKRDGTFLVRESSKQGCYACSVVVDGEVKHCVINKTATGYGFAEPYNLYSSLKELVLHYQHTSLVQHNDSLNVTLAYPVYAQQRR
Chain of PI3K (p110δ/p85α) (h) (O00329 whole entry, the tested form may be a part): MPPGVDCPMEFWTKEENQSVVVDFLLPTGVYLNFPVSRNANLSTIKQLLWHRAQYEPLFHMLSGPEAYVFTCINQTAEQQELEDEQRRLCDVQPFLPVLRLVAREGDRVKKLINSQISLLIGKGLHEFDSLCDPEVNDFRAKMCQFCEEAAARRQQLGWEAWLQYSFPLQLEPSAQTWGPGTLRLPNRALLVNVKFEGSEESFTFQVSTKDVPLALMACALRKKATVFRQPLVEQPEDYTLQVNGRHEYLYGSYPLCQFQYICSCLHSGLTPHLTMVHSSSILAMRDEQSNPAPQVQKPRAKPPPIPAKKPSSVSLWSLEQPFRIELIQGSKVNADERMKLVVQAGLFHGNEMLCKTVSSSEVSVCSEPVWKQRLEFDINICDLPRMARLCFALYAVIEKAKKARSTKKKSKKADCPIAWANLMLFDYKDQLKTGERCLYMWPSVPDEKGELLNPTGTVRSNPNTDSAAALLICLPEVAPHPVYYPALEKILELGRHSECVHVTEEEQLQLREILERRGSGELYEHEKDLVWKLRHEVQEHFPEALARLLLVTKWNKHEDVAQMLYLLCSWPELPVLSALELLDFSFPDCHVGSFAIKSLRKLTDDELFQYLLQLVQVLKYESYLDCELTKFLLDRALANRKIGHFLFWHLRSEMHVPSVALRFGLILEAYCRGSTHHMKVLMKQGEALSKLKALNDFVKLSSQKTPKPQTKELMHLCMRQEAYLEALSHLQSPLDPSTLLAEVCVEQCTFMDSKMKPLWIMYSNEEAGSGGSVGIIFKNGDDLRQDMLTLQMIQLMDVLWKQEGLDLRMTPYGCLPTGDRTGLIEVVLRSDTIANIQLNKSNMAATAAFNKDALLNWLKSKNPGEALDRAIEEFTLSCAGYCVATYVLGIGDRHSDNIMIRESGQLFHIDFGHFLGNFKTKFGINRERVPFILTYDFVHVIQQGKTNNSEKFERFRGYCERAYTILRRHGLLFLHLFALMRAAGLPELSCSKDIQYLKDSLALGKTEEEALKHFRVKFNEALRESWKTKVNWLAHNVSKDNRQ
Chain of PI3K (p110δ/p85α) (h) (P27986 whole entry partner, the tested form may be a part): as the sequence (P27986 whole entry partner) above
Chain of PI3K (p110α/p85α) (h) (P42336 whole entry): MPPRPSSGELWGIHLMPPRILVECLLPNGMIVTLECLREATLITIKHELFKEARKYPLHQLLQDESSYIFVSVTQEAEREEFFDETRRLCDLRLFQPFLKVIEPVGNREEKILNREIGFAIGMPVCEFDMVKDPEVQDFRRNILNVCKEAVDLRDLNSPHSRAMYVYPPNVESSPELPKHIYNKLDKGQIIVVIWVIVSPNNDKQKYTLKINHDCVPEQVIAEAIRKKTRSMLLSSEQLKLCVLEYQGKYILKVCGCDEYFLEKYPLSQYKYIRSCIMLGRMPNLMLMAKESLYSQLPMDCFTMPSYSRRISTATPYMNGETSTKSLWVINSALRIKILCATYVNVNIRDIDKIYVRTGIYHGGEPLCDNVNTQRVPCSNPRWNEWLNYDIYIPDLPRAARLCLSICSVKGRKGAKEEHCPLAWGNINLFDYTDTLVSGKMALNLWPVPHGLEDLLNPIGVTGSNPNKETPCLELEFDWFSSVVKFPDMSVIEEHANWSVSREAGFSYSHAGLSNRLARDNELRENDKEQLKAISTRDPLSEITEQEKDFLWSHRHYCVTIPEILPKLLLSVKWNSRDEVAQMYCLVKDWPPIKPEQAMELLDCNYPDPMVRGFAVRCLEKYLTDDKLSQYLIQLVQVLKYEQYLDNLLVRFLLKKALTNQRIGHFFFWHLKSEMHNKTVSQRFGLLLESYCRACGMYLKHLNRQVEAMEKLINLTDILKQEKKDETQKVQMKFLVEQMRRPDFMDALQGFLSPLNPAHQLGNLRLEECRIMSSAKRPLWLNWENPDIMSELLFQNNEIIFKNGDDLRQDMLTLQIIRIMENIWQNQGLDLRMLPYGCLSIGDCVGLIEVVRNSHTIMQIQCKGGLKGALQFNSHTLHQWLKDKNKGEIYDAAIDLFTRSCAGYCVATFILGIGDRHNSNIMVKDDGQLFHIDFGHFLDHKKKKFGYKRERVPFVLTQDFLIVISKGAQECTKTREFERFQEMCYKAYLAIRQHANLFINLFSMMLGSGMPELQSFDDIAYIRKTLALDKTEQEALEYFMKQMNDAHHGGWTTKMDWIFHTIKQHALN
Chain of PI3K (p110α/p85α) (h) (P27986 whole entry partner): as the sequence (P27986 whole entry partner) above

Take `Cc1noc(-c2c(N)ncnc2N[C@@H](C)c2cc3cccc(-c4cnn(C)c4)c3c(=O)n2C2CC2)n1` [Ex. 26, (S)-3-(1-((6-amino-5-(3-methyl-1,2,4-oxadiazol-5-yl)pyrimidin-4-yl)amino)ethyl)-2-cyclopropyl-8-(1-methyl-1H-pyrazol-4-yl)isoquinolin-1 (2H)-one]: the pIC50 on PI3K (p120γ) (h) was 7.19. For the same compound, the pIC50 at PI3K (p110α/p85α) (h) is 6.88. The pIC50 at PI3K (p110β/p85α) (h) is 6.75. For the same compound, in data set [1], the Cl/F was determined as 50.3 mL/min/kg, the F stood at 121.0%, the exposure AUC(0-t) was determined as 337 ng·h/mL and the half-life was 50.4 min. The Vd in data set [1] stood at 3.14 L/kg. For the same compound, at PI3K (p110δ/p85α) (h), the pIC50 was 8.40.

Turning to `Cc1nnc(-c2c(N)ncnc2N[C@@H](C)c2cc3cccc(-c4cnn(C)c4)c3c(=O)n2C2CC2)o1` [Ex. 25, (S)-3-(1-((6-amino-5-(5-methyl-1,3,4-oxadiazol-2-yl)pyrimidin-4-yl)amino)ethyl)-2-cyclopropyl-8-(1-methyl-1H-pyrazol-4-yl)isoquinolin-1 (2H)-one], the pIC50 at PI3K (p120γ) (h) was 6.49. The pIC50 on PI3K (p110α/p85α) (h) is 6.05. Moreover, at PI3K (p110β/p85α) (h), the pIC50 is 6.05. In data set [1], this compound showed a Cl/F of 33.3 mL/min/kg, an F of 81.0%, an AUC(0-t) of 497 ng·h/mL and a half-life of 79.2 min. Also, the Vd in data set [1] is 3.31 L/kg. The negative-log IC50 (pIC50) at PI3K (p110δ/p85α) (h) is 7.89.

As for `Cc1noc(-c2c(N)ncnc2N[C@@H](C)c2cc3cccc(Cl)c3c(=O)n2-c2ccccc2)n1` [Ex. 8, (S)-3-(1-((6-amino-5-(3-methyl-1,2,4-oxadiazol-5-yl)pyrimidin-4-yl)amino)ethyl)-8-chloro-2-phenylisoquinolin-1(2H)-one], on PI3K (p120γ) (h), the negative logarithm of the IC50 (pIC50) was 7.13. Moreover, the negative logarithm of the IC50 (pIC50) at PI3K (p110α/p85α) (h) was 6.56. For the same compound, in data set [1], the Cl/F is 57.8 mL/min/kg, the F is recorded as 93.06%, the area under the curve AUC(0-t) was 291 ng·h/mL and the half-life is 55.2 min. In data set [1], the Vd amounted to 1.94 L/kg. Further, the negative-log IC50 (pIC50) on PI3K (p110δ/p85α) (h) is 9.00.

Regarding `Cc1nnc(-c2c(N)ncnc2N[C@@H](C)c2cc3cccc(Cl)c3c(=O)n2-c2ccccc2)o1` [Ex. 9, (S)-3-(1-((6-amino-5-(5-methyl-1,3,4-oxadiazol-2-yl)pyrimidin-4-yl)amino)ethyl)-8-chloro-2-phenylisoquinolin-1(2H)-one], the negative logarithm of the IC50 (pIC50) on PI3K (p120γ) (h) is 6.59. The negative-log IC50 (pIC50) at PI3K (p110α/p85α) (h) was 5.57. In data set [1], this compound gave a Cl/F of 17.3 mL/min/kg, an F of 66.87%, an AUC(0-t) of 964 ng·h/mL and a half-life of 82.8 min. Moreover, the Vd in data set [1] amounted to 1.04 L/kg. For the same compound, the pIC50 on PI3K (p110δ/p85α) (h) was 8.40.

As for `Cc1nnc(-c2c(N)ncnc2N[C@@H](C)c2cc3cccc(Cl)c3c(=O)n2C2CC2)o1` [Ex. 4, (S)-3-(1-((6-amino-5-(5-methyl-1,3,4-oxadiazol-2-yl)pyrimidin-4-yl)amino)ethyl)-8-chloro-2-cyclopropylisoquinolin-1(2H)-one], on PI3K (p120γ) (h), the pIC50 was 6.41. Also, the negative logarithm of the IC50 (pIC50) on PI3K (p110α/p85α) (h) is 5.83. In addition, the negative logarithm of the IC50 (pIC50) at PI3K (p110β/p85α) (h) is 7.52. In data set [1], the Cl/F stood at 33.3 mL/min/kg, the F stood at 78.78%, the AUC(0-t) amounted to 498 ng·h/mL and the half-life was 58.8 min. Also, the Vd in data set [1] was 2.4 L/kg. The pIC50 at PI3K (p110δ/p85α) (h) was 7.96.
